For assay [1], the target named is T1, Human PKK (Homo sapiens, UniProt P03952).
T1 construct: purchased Enzyme Research Laboratories
In words: Inhibition of PKK using an endpoint assay (human PKK). The settings on record: fluorogenic substrate H-Pro-Phe-Arg-AMC, 1 h room temperature, method names human or rat PKK, table does not say which. It is filed as biochemical. The method in brief:
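Endpoint fluorescence (ex 355 nm, em 460 nm) after stopping with 1 μM final PPACK II. Buffer: Tris 100 mM pH 7.8, NaCl 150 mM, BSA 0.1%, Tween20 0.05%, with 1% DMSO present; enzyme is human plasma kallikrein.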

In assay [2] the target is T2, PKK in kaolin activated human platelet poor plasma (Homo sapiens, UniProt P03952).
T2 construct: Platelet poor plasma (PPP) obtained from human wholeblood; from tissue
T2 sequence (P03952 391-638 limits assumed): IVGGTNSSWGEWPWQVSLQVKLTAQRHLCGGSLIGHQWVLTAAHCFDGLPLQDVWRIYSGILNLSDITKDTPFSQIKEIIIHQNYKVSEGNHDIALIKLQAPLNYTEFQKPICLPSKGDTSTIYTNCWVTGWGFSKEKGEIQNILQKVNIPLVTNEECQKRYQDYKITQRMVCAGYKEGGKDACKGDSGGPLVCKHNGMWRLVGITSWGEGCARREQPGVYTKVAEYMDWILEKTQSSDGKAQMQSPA
T2 sequence (P03952 20-390 limits assumed): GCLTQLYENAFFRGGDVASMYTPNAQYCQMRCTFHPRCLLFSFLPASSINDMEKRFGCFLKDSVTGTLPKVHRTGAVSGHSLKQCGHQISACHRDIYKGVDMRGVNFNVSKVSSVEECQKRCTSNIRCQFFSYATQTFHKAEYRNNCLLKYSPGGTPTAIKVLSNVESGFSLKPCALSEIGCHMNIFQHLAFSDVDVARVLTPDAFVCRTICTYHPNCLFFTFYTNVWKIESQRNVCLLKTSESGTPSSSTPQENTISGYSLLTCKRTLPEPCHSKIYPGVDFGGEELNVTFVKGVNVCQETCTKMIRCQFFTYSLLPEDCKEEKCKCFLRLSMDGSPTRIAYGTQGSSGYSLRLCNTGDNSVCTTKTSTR
In words: Inhibition of PKK in kaolin activated human PPP.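 Also: readout is the rate of fluorogenic substrate cleavage in rfu per min.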 It is filed as biochemical. The settings on record: 25-750 μg/mL kaolin, global fit, text b200 calls the values IC90. On the procedure:
Platelet poor plasma (PPP) obtained from human wholeblood, anticoagulated with Na-Citrate, is incubated with various concentrations of the test compound together with either 25, 75, 250, or 750 μg/mL kaolin in assay buffer for 20 min at 37° C. such that for each kaolin dose used a concentration response is obtained for the test compound.

For 17 molecules, IC50 results are on record in patent publication US12479827B2, “Heteroaromatic carboxamide derivatives as plasma kallikrein inhibitors” (Boehringer Ingelheim International GmbH, priority 2020, dated 2025).

T1 sequence (P03952 20-390 limits assumed): as above
T1 sequence (P03952 391-638 limits assumed): as the sequence (P03952 391-638 limits assumed) above

For the molecule `Cn1cnc2c1CC[C@H]2NC(=O)c1cn(Cc2ccc(N3CC4C(C3)C4(F)F)cn2)cn1` (stereo partly drawn) [Example 53, 1-[(5-{6,6-Difluoro-3-azabicyclo[3.1.0]hexan-3-yl}pyridin-2-yl)methyl]-N-[(4R)-1-methyl-1H,4H,5H,6H-cyclopenta[d]imidazol-4-yl]-1H-imidazole-4-carboxamide], the figures for the concentration for half-maximal inhibition (IC50) in assay [1] and in assay [2] were 2 nM and 203 nM, respectively.
The corresponding values for `Cn1cnc2c1CC[C@H]2NC(=O)c1cnn(Cc2ccc(N3CC4CC4C3)nc2CCCO)c1` (stereo partly drawn) [Example 54, 1-[(6-{3-Azabicyclo[3.1.0]hexan-3-yl}-2-(3-hydroxypropyl)-pyridin-3-yl)methyl]-N-[(4R)-1-methyl-1H,4H,5H,6H-cyclopenta[d]imidazol-4-yl]-1H-pyrazole-4-carboxamide] are 0.7 nM and 109 nM.
The corresponding values for `COCc1nc(N2CC3C(C2)C3(F)F)ccc1Cn1cc(C(=O)N[C@@H]2CCc3c2ncn3C)nn1` (stereo partly drawn) [Example 55, 1-[(6-{6,6-Difluoro-3-azabicyclo[3.1.0]hexan-3-yl}-2-(methoxymethyl)pyridin-3-yl)methyl]-N-[(4R)-1-methyl-1H,4H,5H,6H-cyclopenta[d]-imidazol-4-yl]-1H-1,2,3-triazole-4-carboxamide] are 2.3 nM and 250 nM.
For `Cn1cnc2c1CC[C@H]2NC(=O)c1cnn(Cc2ccc(N3CC4(CC4)C3)nc2Cl)c1` [Example 56, 1-[(6-{5-Azaspiro[2.3]hexan-5-yl}-2-chloropyridin-3-yl)methyl]-N-[(4R)-1-methyl-1H,4H,5H,6H-cyclopenta[d]imidazol-4-yl]-1H-pyrazole-4-carboxamide], the IC50 was 1.8 nM in assay [1] and 586 nM in assay [2].
The corresponding values for `Cn1cnc2c1CC[C@H]2NC(=O)c1cn(Cc2ccc(N3CC4C(C3)C4(F)F)nc2Cl)cn1` (stereo partly drawn) [Example 57, 1-[(2-Chloro-6-{6,6-difluoro-3-azabicyclo[3.1.0]-hexan-3-yl}pyridin-3-yl)methyl]-N-[(4R)-1-methyl-1H,4H,5H,6H-cyclopenta[d]imidazol-4-yl]-1H-imidazole-4-carboxamide] are 0.6 nM and 166 nM.
The matching figures for `Cn1cnc2c1CC[C@H]2NC(=O)c1cnn(Cc2cnc(N3CC4CC4C3)nc2CO)c1` (stereo partly drawn) [Example 62, 1-[(2-{3-Azabicyclo[3.1.0]hexan-3-yl}-4-(hydroxymethyl)-pyrimidin-5-yl)methyl]-N-[(4R)-1-methyl-1H,4H,5H,6H-cyclopenta[d]imidazol-4-yl]-1H-pyrazole-4-carboxamide]: 14 nM and 769 nM.
The corresponding values for `Cn1cnc2c1CC[C@H]2NC(=O)c1cn(Cc2ccc(N3CC4C(C3)C4(F)F)nc2)cn1` (stereo partly drawn) [Example 63, 1-[(6-{6,6-Difluoro-3-azabicyclo[3.1.0]hexan-3-yl}pyridin-3-yl)methyl]-N-[(4R)-1-methyl-1H,4H,5H,6H-cyclopenta[d]imidazol-4-yl]-1H-imidazole-4-carboxamide] are 3 nM and 203 nM.
On to `Cn1cnc2c1CC[C@H]2NC(=O)c1cn(Cc2ccc(N3CC4CC4C3)nc2C(F)F)cn1` (stereo partly drawn) [Example 64, 1-[(6-{3-Azabicyclo[3.1.0]hexan-3-yl}-2-(difluoromethyl)-pyridin-3-yl)methyl]-N-[(4R)-1-methyl-1H,4H,5H,6H-cyclopenta[d]imidazol-4-yl]-1H-imidazole-4-carboxamide], for which the half-inhibitory concentration (IC50) in assay [1] was found to be 0.7 nM; in assay [2] it was 221 nM.
In the case of `Cn1cnc2c1CC[C@H]2NC(=O)c1cnn(Cc2ccc(N3CC4CC4C3)nc2C(C)(C)C#N)c1` (stereo partly drawn) [Example 65, 1-[(6-{3-Azabicyclo[3.1.0]hexan-3-yl}-2-(1-cyano-1-methylethyl)pyridin-3-yl)methyl]-N-[(4R)-1-methyl-1H,4H,5H,6H-cyclopenta[d]-imidazol-4-yl]-1H-pyrazole-4-carboxamide], the figures for the 50% inhibitory concentration (IC50) in assay [1] and in assay [2] were 1.4 nM and 1230 nM, respectively.
The corresponding values for `CCCc1nc(N2CC3C(C2)C3(F)F)ccc1Cn1cnc(C(=O)N[C@@H]2CCc3c2ncn3C)c1` (stereo partly drawn) [Example 66, 1-[(6-{6,6-Difluoro-3-azabicyclo[3.1.0]hexan-3-yl}-2-propylpyridin-3-yl)methyl]-N-[(4R)-1-methyl-1H,4H,5H,6H-cyclopenta[d]imidazol-4-yl]-1H-imidazole-4-carboxamide] are 0.7 nM and 839 nM.
Turning to `Cn1cnc2c1CC[C@H]2NC(=O)c1cnn(Cc2ccc(N3CC4C(C3)C4(F)F)nc2C2CCC2)c1` (stereo partly drawn) [Example 67, 1-[(2-Cydobutyl-6-{6,6-difluoro-3-azabicyclo[3.1.0]hexan-3-yl}pyridin-3-yl)methyl]-N-[(4R)-1-methyl-1H,4H,5H,6H-cyclopenta[d]imidazol-4-yl]-1H-pyrazole-4-carboxamide], the IC50 was determined as 3.1 nM in assay [1] and 635 nM in assay [2].
Take `Cc1nc(N2CC3(CC3)C2)ccc1Cn1cc(C(=O)N[C@@H]2CCc3c2ncn3C)nn1` [Example 68, 1-[(6-{5-Azaspiro[2.3]hexan-5-yl}-2-methylpyridin-3-yl)-methyl]-N-[(4R)-1-methyl-1H,4H,5H,6H-cyclo-penta[d]imidazol-4-yl]-1H-1,2,3-triazole-4-carboxamide]: the IC50 in assay [1] turned out to be 1.4 nM; in assay [2], 637 nM.
The corresponding values for `CCCc1nc(N2CC3C(C2)C3(F)F)ccc1Cn1cc(C(=O)N[C@@H]2CCc3c2ncn3C)cn1` (stereo partly drawn) [Example 69, 1-[(6-{6,6-Difluoro-3-azabicyclo[3.1.0]hexan-3-yl}-2-propylpyridin-3-yl)methyl]-N-[(4R)-1-methyl-1H,4H,5H,6H-cyclopenta[d]imidazol-4-yl]-1H-pyrazole-4-carboxamide] are 0.9 nM and 328 nM.
The matching figures for `Cc1nc(N2CC3CC3C2)ccc1Cn1cc(C(=O)N[C@@H]2CCc3c2ncn3C)c(C#N)n1` (stereo partly drawn) [Example 70, 1-[(6-{3-Azabicyclo[3.1.0]hexan-3-yl}-2-methylpyridin-3-yl)methyl]-3-cyano-N-[(4R)-1-methyl-1H,4H,5H,6H-cyclopenta[d]imidazol-4-yl]-1H-pyrazole-4-carboxamide]: 0.8 nM and 797 nM.
On to `Cn1cnc2c1CC[C@H]2NC(=O)c1cnn(Cc2ncc(N3CC4CC4C3)cn2)c1` (stereo partly drawn) [Example 71, 1-[(5-{3-Azabicyclo[3.1.0]hexan-3-yl}pyrimidin-2-yl)methyl]-N-[(4R)-1-methyl-1H,4H,5H,6H-cyclopenta[d]imidazol-4-yl]-1H-pyrazole-4-carboxamide], for which the IC50 was 151 nM in assay [1] and 9310 nM in assay [2].
In the case of `Cn1cnc2c1CC[C@H]2NC(=O)c1cn(Cc2ccc(N3CC4CC4C3)nc2)cn1` (stereo partly drawn) [Example 72, 1-[(6-{3-Azabicyclo[3.1.0]hexan-3-yl}pyridin-3-yl)methyl]-N-[(4R)-1-methyl-1H,4H,5H,6H-cyclopenta[d]imidazol-4-yl]-1H-imidazole-4-carboxamide], the IC50 in assay [1] was found to be 3.3 nM; in assay [2] it was 831 nM.
The corresponding values for `Cn1cnc2c1CC[C@H]2NC(=O)c1cnn(Cc2ccc(N3CC4(CC4)C3)nc2)c1` [Example 73, 1-[(6-{5-Azaspiro[2.3]hexan-5-yl}pyridin-3-yl)-methyl]-N-[(4R)-1-methyl-1H,4H,5H,6H-cyclopenta[d]imidazol-4-yl]-1H-pyrazole-4-carboxamide] are 9.6 nM and 498 nM.

As a reminder, the IC50 is the point on the concentration scale where inhibition reaches its midpoint.
